Where no end group is shown, it is not given here.
Tests used:
[1] = system: serpin gene in B. longum NCC 2705; assay: Sugar induction of serpin gene transcription in Biolector culture (qRT-PCR); type: cell-based; settings: 180 min sugar induction at 0.1%, relative to growth in only MRSc (FIG. 1)
Protocol: FIG. 1—Relative transcription level of serpin gene in B. longum NCC 2705 after 180 min sugar induction at a concentration of 0.1%. The bars indicate the relative amounts of serpin mRNAs for the specific samples comparing to that of growth in only MRSc. Black bars represent significant induction. The standard deviation was obtained from at least 2 different experiments (95% confidence interval).
BL NCC 2705 (B. longum strain CNCM I-2618) was grown in Biolector (growth conditions—anaerobic, 37° C., MRS+5 mM L-cysteine (MRSc).
48-well microtiter plate with pH sensor and dissolved oxygen (DO) sensor were used to culture the strains in Biolector (m2p-labs Aachen, Germany). It was continuously shaken to prevent bacteria aggregation and measurements were performed every 15 min. Plates were sealed with a gas permeable film and an anaerobe-chamber provides well-defined anaerobic gassing conditions. Fermentation parameters like biomass, pH and dissolved oxygen (DO) were monitored online throughout the entire growth using the BioLection HMI software. Growth parameters were:
The following carbohydrates were added to the cultures individually:
B. longum NCC 2705 was then further cultivated in the same conditions for 180 min, after which samples (500 μl) were collected and serpin mRNA levels measured. Every fermentation was performed at least in duplicate.
Total RNA isolation—500 μl of bacterial cultures were suspended in 1 ml of RNA protect bacteria reagent (Qiagen, Germany) and briefly centrifuged 10 min at 5000 g to harvest cells for total RNA extraction.
Total RNA was extracted using the RNeasy total RNA Mini kit (Qiagen, Germany, Ca. No. 74101) with protease K (Qiagen, Germany, Ca. No. 19131) and further treated using RNase-free DNase set (Qiagen, Germany, Ca. No. 79254). Total RNA was then eluted in 40 μl water. […]
mRNA fold expression analysis method—The Pfaffl method was used to calculate relative transcription changes (Pfaffl, 2012, Martin Filion, Hg., Quantitative real-time PCR in Applied Microbiology, 53-62) for which the equation is shown in Equation 1: […]

[2] = system: mouse model of gluten sensitivity; settings: elafin delivered by recombinant Lactococcus lactis; cited from earlier work
[3] = target: T1, transglutaminase 2 (TG2) (Homo sapiens, UniProt P21980); settings: in vitro; inhibits deamidation of the 33-mer gliadin peptide; cited from earlier work
T1 sequence (P21980 1-687): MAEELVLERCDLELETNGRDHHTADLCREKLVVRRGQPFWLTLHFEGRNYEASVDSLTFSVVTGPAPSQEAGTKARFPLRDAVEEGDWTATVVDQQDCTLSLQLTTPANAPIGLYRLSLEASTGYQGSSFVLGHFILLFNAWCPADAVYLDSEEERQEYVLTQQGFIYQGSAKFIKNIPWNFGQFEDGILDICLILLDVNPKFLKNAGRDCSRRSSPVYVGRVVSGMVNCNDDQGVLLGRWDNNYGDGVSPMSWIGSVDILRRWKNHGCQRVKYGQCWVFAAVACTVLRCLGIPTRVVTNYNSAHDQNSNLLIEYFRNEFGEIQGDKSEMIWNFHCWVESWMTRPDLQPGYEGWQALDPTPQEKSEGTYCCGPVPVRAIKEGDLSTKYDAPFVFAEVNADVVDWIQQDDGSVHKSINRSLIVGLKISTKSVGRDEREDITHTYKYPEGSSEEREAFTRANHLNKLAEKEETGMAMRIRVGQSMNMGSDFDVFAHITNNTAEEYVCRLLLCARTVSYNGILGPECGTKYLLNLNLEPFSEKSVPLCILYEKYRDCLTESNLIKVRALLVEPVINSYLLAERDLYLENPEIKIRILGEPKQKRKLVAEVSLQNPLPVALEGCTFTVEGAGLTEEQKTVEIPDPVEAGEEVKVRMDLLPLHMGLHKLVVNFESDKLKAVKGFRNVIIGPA

[4] = system: elastases and proteinase; settings: cited from earlier work
[5] = system: BL NCC 2705 serpin; assay: Lactose dose response in 10 L fermenter, serpin mRNA fold induction; type: cell-based, B. longum; settings: addition of 0.1% lactose, among 0.05%, 1%, 2% and 2.75%, glucose added to 5.5% total sugar, base 8 h culture (FIG. 2)
Protocol: FIG. 2—Serpin mRNA level of B. longum NCC 2705 fermented in different growth medium after 8 h, 12 h and 16 h. Different proportions of glucose was replaced by lactose and fructose as shown in the y-axis and the total amount of sugar percentage was kept stable at 5.5%. The values were calculated based on B. longum NCC 2705 growth after 8 h in 5.5% glucose. Black bars represent significant induction. In order to optimize the effect of lactose on induction of BL NCC 2705 serpin, a dose response was performed. The fermentation was performed in a 10 L Biostar B Plus fermenter with MRSc medium, supplemented with 0.05% cysteine as base, and different concentration of lactose (0.05%, 0.1%, 1%, 2% and 2.75%) were added to the medium. Glucose was supplemented to the different recipes to reach a final total amount of 5.5% of total sugar. Serpin mRNA fold induction was calculated using the 8 h MRSc grown BL NCC 2705 culture as a base (FIG. 2).

Compound	serpin mRNA levels of B. longum NCC 2705 [1]	gluten-induced pathology and intestine inflammation [2]	inhibition of transglutaminase 2 (TG2) [3]	inhibitory capacity against various forms of elastases and proteinase [4]	serpin mRNA level at end of fermentation (16 h) [5]
OC[C@H]1O[C@H](OC[C@H]2O[C@H](O[C@]3(CO)O[C@H](CO)[C@@H](O)[C@@H]3O)[C@H](O)[C@@H](O)[C@@H]2O)[C@H](O)[C@@H](O)[C@H]1O [raffinose, Raffinose]	increase				
elafin: human serine protease inhibitor (AQEPVKGPVSTKPGSCPIILIRCAMLNPPNRCLKDTDCPGIKKCCEGSCGMACFVPQ; ends and bridges not checked; cysteine pairing not given here; UniProt P19957 61-117, looked up)		reduce gluten-induced pathology and normalise intestine inflammation	moderately inhibits	potent inhibitory capacity	
O=C(CO)[C@@H](O)[C@H](O)[C@H](O)CO [fructose, Fructose]	increase				
OC[C@H]1O[C@@H](O[C@H]2[C@H](O)[C@@H](O)C(O)O[C@@H]2CO)[C@H](O)[C@@H](O)[C@H]1O (stereo partly shown) [lactose, Lactose]	increase				highest
